Patent US20130210057A1, “USE OF LABEL-FREE BIOSENSORS TO UNDERSTAND AND IDENTIFY TREATMENT FOR CANCER” (CORNING INCORPORATED, priority 2012, published 2013)
Entries after “also recorded” stand apart in the source; their conditions may differ. Where two headings read alike, the source gives them in different places. Ends that are not written are not given here.

Key:
[1] = test system: HCT116 PTEN null cells; assay: cAMP-Glo assay; assay type: cell-based, human; conditions: 15 minutes incubation
Method: (§1) Cells were cultured in the McCoy's 5a complete growth medium overnight. The next day cAMP-Glo assay was performed according to manufacturer's instruction (Promega, Cat# V1502). Briefly, cell culture medium was removed by flipping the plate. […] Luminescence was measured using Tecan Salim II plate reader.
(§2) To screen endogenous receptors and their coupled signaling pathways, we first assembled a GPCR agonist focused library (Table 1). The library consists of 120 GPCR agonists covering over 150 known GPCRs, based on their known pharmacology including polypharmacology. For small molecule chemical agonists, the dose used was 10 micromolar. For peptide agonists, the dose used was 1 micromolar. For lipid agonists, the dose used was also 1 micromolar. For both peptides and lipids, these agonists were suspended in a solution containing 0.05% bovine […] to increase their stability.
(§3) cAMP assays were employed to investigate endogenous Gs-coupled receptors. FIG. 2 is a graph illustrating cAMP accumulation induced by GPCR agonists. The percentage of cAMP level after normalized to the forskolin-induced cAMP increase was plotted as a function of GPCR agonists. PCT116 parental (squares) was compared with HCT116-PTEN Null (diamonds) cell line.

[2] = test system: HCT116 parental cells; assay: cAMP-Glo assay; assay type: cell-based, human; conditions: 15 minutes incubation
Method: as §1, §2, §3

[3] = test system: HCT116 PTEN null cells; assay: Calcium flux assay (FLUO-4, FDSS/FLIPR); assay type: cell-based, human; conditions: small molecule agonists 10 micromolar, peptide and lipid agonists 1 micromolar
Source text: as §2

[4] = test system: HCT116 parental cells; assay: Calcium flux assay (FLUO-4, FDSS/FLIPR); assay type: cell-based, human; conditions: small molecule agonists 10 micromolar, peptide and lipid agonists 1 micromolar
Source text: as §2

[5] = test system: HCT116 parental cell line; assay: Label-free RWG biosensor DMR assay; assay type: cell-based, human; conditions: for kinase inhibitor drug-induced DMR signal: 16 μM
Source text: (§4) EPIC® beta version wavelength interrogation system (Corning Inc., NY) was used for whole cell sensing. This system consists of a temperature-control unit, an optical detection unit, and an on-board liquid handling unit with robotics. The detection unit is centered on integrated fiber optics, and enables kinetic measures of cellular responses with a time interval of ˜15 sec. Also EPIC® commercial systems were used, with a liquid handler accessory attached to EPIC® reader system. Also, an Epic® RWG imager can be used.
(§5) The resonant waveguide grating (RWG) biosensor is capable of detecting minute changes in local index of refraction near the sensor surface and the waveguide thin film having gratings provide a cell culture surface. Since the local index of refraction within a cell is a function of density and its distribution of biomass (e.g., proteins, molecular complexes), the biosensor exploits its evanescent wave to non-invasively detect ligand-induced Dynamic Mass Redistribution (DMR) in native cells. When a cell is stimulated, it responds. That response is a redistribution of biomass in the cell. Upon stimulation, proteins, protein complexes, and/or organelles in the cells move. The evanescent wave extends into the cells and exponentially decays over distance, leading to a characteristic sensing depth of ˜150 nm. Any optical response mediated through receptor activation only represents an average over the portion of the cell that the evanescent wave is sampling. The aggregation of many cellular events downstream to the receptor activation leads to a DMR signal having characteristic kinetics and amplitudes.
(§6) All assays were carried out at a controlled temperature (28° C.). At least two independent sets of experiments, each with at least three replicates, were performed.

[6] = test system: HCT116-PTEN Null cell line; assay: Label-free RWG biosensor DMR assay; assay type: cell-based, human; conditions: for kinase inhibitor drug-induced DMR signal: HCT116-PTEN null; for kinase inhibitor drug-induced DMR signal / sensitivity of kinase inhibitor drug-induced DMR to PTEN deletion: 16 μM; for sensitivity of kinase inhibitor drug-induced DMR to PTEN deletion: PTEN null vs parental
Source text: as §4, §5, §6

[7] = test system: IGF1-induced DMR in HCT116-PTEN Null cell line; assay: DMR reporter assay: modulation of IGF1-induced DMR by kinase inhibitor pretreatment; conditions: 2 nM IGF1; for alteration of the late response of the IGF1 DMR (signal at 50 min poststimulation) / impact on the early P-DMR amplitude of the IGF1 DMR: HCT116-PTEN Null; for alteration of the late response of the IGF1 DMR (signal at 50 min poststimulation): about 1 hr pretreatment at different doses; for impact on the early P-DMR amplitude of the IGF1 DMR / potency to increase the late IGF1 response, PTEN-deleted vs parental cell line: about 1 hr pretreatment
[8] = test system: IGF1-induced DMR in HCT116 parental cell line; assay: as above; conditions: 2 nM IGF1; for alteration of the late response of the IGF1 DMR (signal at 50 min poststimulation): about 1 hr pretreatment at different doses; for impact on the early P-DMR amplitude of the IGF1 DMR: about 1 hr pretreatment

CCNC(=O)[C@H]1O[C@@H](n2cnc3c(N)nc(NCCc4ccc(CCC(=O)O)cc4)nc32)[C@H](O)[C@@H]1O [CGS21680]
cAMP accumulation (normalized to forskolin-induced cAMP increase) [1]: detectable cAMP accumulation | cAMP accumulation (normalized to forskolin-induced cAMP increase) [2]: detectable cAMP accumulation

CCCCC[C@H](O)/C=C/[C@H]1[C@H](O)CC(=O)[C@@H]1C/C=C\CCCC(=O)O [PGE2, Peostaglandin E2]
cAMP accumulation (normalized to forskolin-induced cAMP increase) [1]: detectable cAMP accumulation | cAMP accumulation (normalized to forskolin-induced cAMP increase) [2]: detectable cAMP accumulation

O=c1ccn([C@@H]2O[C@H](COP(=O)(O)OP(=O)(O)O)[C@@H](O)[C@H]2O)c(=O)[nH]1 [UDP]
Ca^2+ mobilization (fold increase in fluorescence, FLIPR) [3]: robust Ca^2+ mobilization | Ca^2+ mobilization (fold increase in fluorescence, FLIPR) [4]: robust Ca^2+ mobilization

Nc1ncnc2c1ncn2[C@@H]1O[C@H](CO)[C@@H](O)[C@H]1O [adenosine, Adenosine]
effect of cholera toxin (CTx) pretreatment on the agonist DMR [5]: almost completely suppressed | receptor / signaling pathway activated (pathway deconvolution of DMR with toxins) ([5]; HCT116 parental, 10 μM agonist): primarily activates endogenous Gs-coupled adenosine A2B receptors | effect of pertussis toxin (PTx) pretreatment on the agonist DMR ([5]; HCT116 parental, PTX 100 ng/ml overnight, 10 μM agonist): only accelerated | effect of cholera toxin (CTx) pretreatment on the agonist DMR [6]: almost completely suppressed | agonist DMR in PTEN deleted cell line compared to parental cell line (sensitivity to PTEN deletion) ([6]; 10 μM agonist (EGF, IGF1 1 μM)): greatly different | receptor / signaling pathway activated (pathway deconvolution of DMR with toxins) ([6]; HCT116-PTEN Null, 10 μM agonist): primarily activates endogenous Gs-coupled adenosine A2B receptors | effect of pertussis toxin (PTx) pretreatment on the agonist DMR ([6]; HCT116-PTEN Null, PTX 100 ng/ml overnight, 10 μM agonist): only accelerated

CNC[C@H](O)c1ccc(O)c(O)c1 [epinephrine, (−)epinephrine]
effect of pertussis toxin (PTx) pretreatment on the agonist DMR [5]: little effect | receptor / signaling pathway activated (pathway deconvolution of DMR with toxins) [5]: primarily activates endogenous Gs-coupled beta1-adrenergic receptor | agonist DMR in PTEN deleted cell line compared to parental cell line (sensitivity to PTEN deletion) [6]: greatly differed | effect of pertussis toxin (PTx) pretreatment on the agonist DMR [6]: little effect | receptor / signaling pathway activated (pathway deconvolution of DMR with toxins) [6]: primarily activates endogenous Gs-coupled beta1-adrenergic receptor

C#Cc1cccc(Nc2ncnc3cc(OCCOC)c(OCCOC)cc23)c1 [erlotinib]
alteration of the late response of the IGF1 DMR (signal at 50 min poststimulation) [7]: increased in the dose-dependent manner | impact on the early P-DMR amplitude of the IGF1 DMR [7]: little impact | potency to increase the late IGF1 response, PTEN-deleted vs parental cell line [7]: lower | alteration of the late response of the IGF1 DMR (signal at 50 min poststimulation) [8]: increased in the dose-dependent manner | impact on the early P-DMR amplitude of the IGF1 DMR [8]: little impact | kinase inhibitor drug-induced DMR signal ([5]; HCT116 parental): very small DMR signals | kinase inhibitor drug-induced DMR signal [6]: very small DMR signals

CO[C@H]1C[C@@H]2CC[C@@H](C)[C@@](O)(O2)C(=O)C(=O)N2CCCC[C@H]2C(=O)O[C@H]([C@H](C)C[C@@H]2CC[C@@H](OCCO)[C@H](OC)C2)CC(=O)[C@H](C)/C=C(\C)[C@@H](O)[C@@H](OC)C(=O)[C@H](C)C[C@H](C)/C=C/C=C/C=C/1C [everolimus]
kinase inhibitor drug-induced DMR signal ([5]; HCT116 parental): detectable DMR | sensitivity of kinase inhibitor drug-induced DMR to PTEN deletion [6]: suppressed or decreased the kinetics

C=C[C@@]1(C)CC(=O)[C@]2(O)[C@@]3(C)[C@@H](O)CCC(C)(C)[C@@H]3[C@H](O)[C@H](OC(C)=O)[C@@]2(C)O1 [forskolin]
DMR signal amplitude ([5]; HCT116 parental, GPCR agonist library profiling, 3-45 min poststimulation): greater than 80 picometer | DMR signal amplitude ([6]; HCT116-PTEN Null, GPCR agonist library profiling, 3-45 min poststimulation): greater than 80 picometer

COc1cc2ncnc(Nc3ccc(F)c(Cl)c3)c2cc1OCCCN1CCOCC1 [gefitinib]
alteration of the late response of the IGF1 DMR (signal at 50 min poststimulation) [7]: increased in the dose-dependent manner | impact on the early P-DMR amplitude of the IGF1 DMR [7]: little impact | potency to increase the late IGF1 response, PTEN-deleted vs parental cell line [7]: lower | alteration of the late response of the IGF1 DMR (signal at 50 min poststimulation) [8]: increased in the dose-dependent manner | impact on the early P-DMR amplitude of the IGF1 DMR [8]: little impact

Cc1ccc(NC(=O)c2ccc(CN3CCN(C)CC3)cc2)cc1Nc1nccc(-c2cccnc2)n1 [imatinib]
alteration of the late response of the IGF1 DMR (signal at 50 min poststimulation) [8]: dose-dependently increased | sensitivity of kinase inhibitor drug-induced DMR to PTEN deletion [6]: sensitive; also recorded: great sensitivity

CS(=O)(=O)CCNCc1ccc(-c2ccc3ncnc(Nc4ccc(OCc5cccc(F)c5)c(Cl)c4)c3c2)o1 [lapatinib]
kinase inhibitor drug-induced DMR signal ([5]; HCT116 parental): did not result in any detectable DMR | kinase inhibitor drug-induced DMR signal [6]: did not result in any detectable DMR

Cc1cn(-c2cc(NC(=O)c3ccc(C)c(Nc4nccc(-c5cccnc5)n4)c3)cc(C(F)(F)F)c2)cn1 [nilotinib]
sensitivity of kinase inhibitor drug-induced DMR to PTEN deletion [6]: sensitive

CNC(=O)c1cc(Oc2ccc(NC(=O)Nc3ccc(Cl)c(C(F)(F)F)c3)cc2)ccn1 [sorafenib]
kinase inhibitor drug-induced DMR signal ([5]; HCT116 parental): did not result in any detectable DMR | kinase inhibitor drug-induced DMR signal [6]: did not result in any detectable DMR

CO[C@H]1C[C@@H]2CC[C@@H](C)[C@@](O)(O2)C(=O)C(=O)N2CCCC[C@H]2C(=O)O[C@H]([C@H](C)C[C@@H]2CC[C@@H](OC(=O)C(C)(CO)CO)[C@H](OC)C2)CC(=O)[C@H](C)/C=C(\C)[C@@H](O)[C@@H](OC)C(=O)[C@H](C)C[C@H](C)/C=C/C=C/C=C/1C [temsirolimus]
kinase inhibitor drug-induced DMR signal ([5]; HCT116 parental): detectable DMR | sensitivity of kinase inhibitor drug-induced DMR to PTEN deletion [6]: suppressed or decreased the kinetics

Adrenomedulin (YRQSMNNFQGLRSFGCRFGTCTVQKLAHQIYQFTDKDKDNVAPRSKISPQGY; ends and bridges not checked; cysteine pairing not given here; UniProt P35318 95-146, looked up) [peptide agonist of adrenomedulin receptor]
cAMP accumulation (normalized to forskolin-induced cAMP increase) [1]: detectable cAMP accumulation | cAMP accumulation (normalized to forskolin-induced cAMP increase) [2]: detectable cAMP accumulation

Calcitonin (CGNLSTCMLGTYTQDFNKFHTFPQTAIGVGAP; ends and bridges not checked; cysteine pairing not given here; UniProt P01258 85-116, looked up) [peptide agonist of calcitonin receptor]
cAMP accumulation (normalized to forskolin-induced cAMP increase) [1]: detectable cAMP accumulation | cAMP accumulation (normalized to forskolin-induced cAMP increase) [2]: detectable cAMP accumulation

EGF: epidermal growth factor (EGF) (NSDSECPLSHDGYCLHDGVCMYIEALDKYACNCVVGYIGERCQYRDLKWWELR; Epidermal growth factor; UniProt P01133 971-1023, looked up)
agonist DMR in PTEN deleted cell line compared to parental cell line (sensitivity to PTEN deletion) ([6]; 10 μM agonist (EGF, IGF1 1 μM)): insensitive

IGF1: insulin growth factor-1 (IGF1)
agonist-induced DMR signal ([5]; HCT116 parental, untreated, 10 μM agonist (EGF, IGF1 1 μM)): robust DMR signal | agonist DMR in PTEN deleted cell line compared to parental cell line (sensitivity to PTEN deletion) ([6]; 10 μM agonist (EGF, IGF1 1 μM)): clear effects; also recorded: greater sensitivity | agonist-induced DMR signal ([6]; HCT116-PTEN Null, untreated, 10 μM agonist (EGF, IGF1 1 μM)): robust DMR signal

Vasoactive intestinal peptide (HSDAVFTDNYTRLRKQMAVKKYLNSILN; ends and bridges not checked; UniProt P01282 125-152, looked up) [VIP]
cAMP accumulation (normalized to forskolin-induced cAMP increase) [1]: detectable cAMP accumulation | cAMP accumulation (normalized to forskolin-induced cAMP increase) [2]: detectable cAMP accumulation
